How the values were obtained:
Influenza A virus = test: Inhibitory activity against sialidase of influenza A; format: functional, organism-based
Influenza B virus [1] = test: Inhibitory activity against sialidase of influenza B; format: functional, organism-based
Influenza B virus [2] = test: Inhibitory activity against sialidase of influenza B at a concentration of 660 uM; format: functional

| SMILES | IC50 (Influenza A virus) [µM] | IC50 (Influenza B virus [1]) [µM] | inhibition at 660 µM (Influenza B virus [2]) [%] |
| --- | --- | --- | --- |
| CCCO[C@@H]1CC2(C(=O)O)CC[C@@]1(NC(C)=O)[C@@H](O)C2 (single isomer, unassigned) | 660 | 660 | 12 |
| CCCO[C@@H]1C=C(C(=O)O)C[C@H](N)[C@H]1NC(C)=O | 0.13 |  |  |

From ChEMBL document CHEMBL1131953, “Synthesis of a tetrasubstituted bicyclo [2.2.2] octane as a potential inhibitor of influenza virus sialidase” (Bioorg Med Chem Lett, 1999)
